This is an account of results in patent publication US20100075965A1, “PI3 KINASE INHIBITORS AND METHODS OF THEIR USE” (Novartis AG, priority 2006, published 2010).

One assay has as its target PI3 K Alpha (Homo sapiens, UniProt P42336). Description: PI3 kinase phosphorylation assays (homogenous solution phase, one step solid phase, ATP depletion/KinaseGlo). In kind it is biochemical. For orientation: Kinase-Glo measures the ATP left after a reaction by luminescence.
The subject of assay [1] is pSer473-Akt in A2780 cells. Description: pSer473 Akt assay to monitor PI3K pathway in A2780 cells (MSD). In kind it is cell-based. The conditions noted are these: Homo sapiens, A2780 cells. The procedure, abridged: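 EC50 is derived from percent inhibition of Akt Ser473 phosphorylation, normalised to total Akt and compared with DMSO-only wells, read by MSD immunoassay. Lysates came from A2780 cells plated overnight at 15,000/well and exposed to compound for one hour at 37 °C.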

The subject of a further assay is A2780 cells. Nature of the assay: Viability assay in A2780 (Cell Titer Glo). In kind it is cell-based, human. The conditions noted are these: Homo sapiens, A2780 cells, read-out: A2780 Cell prolif. EC50. The essentials: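 EC50 values come from Cell Titer Glo luminescence after 72 hrs of compound exposure at 37° C, run in duplicate. A2780 cells were plated at 1,000 per well in DMEM with 10% FBS and dosed with 3-fold serial dilutions.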
A general note: Cellular ATP, detected with luciferase, serves as a proxy for viable cell number.

The mark [2] stands for this setting: ATP depletion assay, read-out: PI3 K Alpha IC50.
Setting [3] is: 1 h, one hour incubation, read-out: A2780 pAKT473 EC50.

pEC50, pIC50: −log10 of the molar value. Where two headings read alike, the source gives them in different places.

PI3 K Alpha, sequence (P42336 whole entry): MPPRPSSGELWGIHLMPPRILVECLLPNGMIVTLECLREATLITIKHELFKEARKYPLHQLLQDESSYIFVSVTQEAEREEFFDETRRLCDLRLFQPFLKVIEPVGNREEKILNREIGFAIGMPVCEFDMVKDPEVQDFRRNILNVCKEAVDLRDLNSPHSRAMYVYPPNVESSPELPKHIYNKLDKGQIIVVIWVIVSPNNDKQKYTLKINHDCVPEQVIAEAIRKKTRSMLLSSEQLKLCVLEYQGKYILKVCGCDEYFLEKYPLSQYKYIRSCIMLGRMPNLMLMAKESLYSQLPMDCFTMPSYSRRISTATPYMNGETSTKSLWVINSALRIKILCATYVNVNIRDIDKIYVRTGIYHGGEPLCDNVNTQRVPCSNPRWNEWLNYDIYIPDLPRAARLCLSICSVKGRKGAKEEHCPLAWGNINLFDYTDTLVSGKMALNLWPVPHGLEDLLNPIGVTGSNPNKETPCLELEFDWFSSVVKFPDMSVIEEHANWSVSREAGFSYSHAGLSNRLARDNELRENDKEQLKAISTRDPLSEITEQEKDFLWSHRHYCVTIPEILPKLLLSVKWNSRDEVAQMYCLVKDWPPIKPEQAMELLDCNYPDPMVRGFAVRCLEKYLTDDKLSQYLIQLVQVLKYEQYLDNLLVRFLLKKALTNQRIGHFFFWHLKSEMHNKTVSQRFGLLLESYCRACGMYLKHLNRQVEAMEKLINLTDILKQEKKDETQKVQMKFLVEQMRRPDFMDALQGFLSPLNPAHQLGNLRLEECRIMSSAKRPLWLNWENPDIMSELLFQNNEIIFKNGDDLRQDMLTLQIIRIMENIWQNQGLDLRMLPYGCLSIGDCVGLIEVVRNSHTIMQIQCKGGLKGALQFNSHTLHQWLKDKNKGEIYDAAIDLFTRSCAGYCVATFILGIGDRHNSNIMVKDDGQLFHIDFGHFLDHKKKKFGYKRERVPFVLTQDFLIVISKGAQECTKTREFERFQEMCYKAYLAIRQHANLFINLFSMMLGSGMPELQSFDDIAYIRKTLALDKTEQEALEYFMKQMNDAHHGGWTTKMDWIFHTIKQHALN
PI3 K Alpha, sequence (P27986 whole entry partner): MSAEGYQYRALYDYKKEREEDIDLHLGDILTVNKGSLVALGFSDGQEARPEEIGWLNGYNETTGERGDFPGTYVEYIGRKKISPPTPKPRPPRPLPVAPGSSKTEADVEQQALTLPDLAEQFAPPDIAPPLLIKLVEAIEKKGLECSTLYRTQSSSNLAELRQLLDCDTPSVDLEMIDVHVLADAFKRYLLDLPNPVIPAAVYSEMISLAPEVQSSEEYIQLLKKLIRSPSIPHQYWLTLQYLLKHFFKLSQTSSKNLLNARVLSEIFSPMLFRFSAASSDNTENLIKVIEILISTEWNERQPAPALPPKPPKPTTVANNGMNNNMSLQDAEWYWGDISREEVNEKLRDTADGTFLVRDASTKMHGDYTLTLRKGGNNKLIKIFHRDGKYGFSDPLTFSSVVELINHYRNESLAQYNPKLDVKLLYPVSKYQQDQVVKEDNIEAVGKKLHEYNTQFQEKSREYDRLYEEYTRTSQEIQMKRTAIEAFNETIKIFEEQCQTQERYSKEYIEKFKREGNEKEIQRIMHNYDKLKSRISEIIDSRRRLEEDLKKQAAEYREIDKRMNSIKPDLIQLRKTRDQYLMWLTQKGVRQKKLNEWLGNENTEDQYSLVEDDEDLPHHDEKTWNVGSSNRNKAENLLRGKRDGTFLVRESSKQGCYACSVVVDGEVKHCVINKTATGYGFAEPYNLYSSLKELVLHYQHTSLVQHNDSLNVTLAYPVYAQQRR

The term pIC50 denotes the negative decadic logarithm of the IC50, by convention in mol/L. By pEC50 is commonly meant the EC50 on a negative log10 scale, so that one unit is a factor of ten. Consider `CNCC(=O)Nc1cn2cc(-c3cnc(N)c(C(F)(F)F)c3)ccc2n1` [Example 80, N-(6-(6-amino-5-(trifluoromethyl)pyridin-3-yl)imidazo[1,2-a]pyridin-2-yl)-2-(methylamino) acetamide], for which, at PI3 K Alpha (read-out: PI3K Alpha IC50), the pIC50 is over 6.00. The pEC50 (in assay [1] (read-out: A2780 pAKT 473 EC50); in the assay with A2780 cells) was over 6.00 each time.
`CC(=O)Nc1nc2ccc(-c3cnc(N)c(C(F)(F)F)c3)cn2c1-c1ccccc1` [Example 12, N-[6-(6-Amino-5-trifluoromethyl-pyridin-3-yl)-3-phenyl-imidazo[1,2-a]pyridin-2-yl]-acetamide]: the pIC50 at PI3 K Alpha (read-out: PI3K Alpha IC50) was over 6.00. Moreover, the pEC50 in assay [1] (read-out: A2780 pAKT 473 EC50) is over 5.00; in the assay with A2780 cells, over 4.60.
As to `CC(=O)Nc1cn2nc(-c3cnc(N)c(C(=O)O)c3)ccc2n1` [Example 136, 5-(2-acetamido-imidazo[1,2-b]pyridazin-6-yl)-2-aminonicotinic acid], the pIC50 at PI3 K Alpha (read-out: PI3K Alpha IC50) was over 6.00. The negative-log EC50 (pEC50) (in assay [1] (read-out: A2780 pAKT 473 EC50); in the assay with A2780 cells) was over 4.60 throughout.
For `CC(C)(C)OC(=O)NCCCC(=O)Nc1cn2nc(-c3cnc(N)c(C(F)(F)F)c3)ccc2n1` [Example 79, tert-butyl 4-(6-(6-amino-5-(trifluoromethyl)pyridin-3-yl)imidazo[1,2-b]pyridazin-2-ylamino)-4-oxobutylcarbamate], the pIC50 on PI3 K Alpha (read-out: PI3K Alpha IC50) was over 6.00. The results for the pEC50 (in assay [1] (read-out: A2780 pAKT 473 EC50); in the assay with A2780 cells) were over 5.00 and over 6.00, respectively.
For `CC(=O)Nc1cn2cc(-c3cnc(N)c(Cl)c3)ccc2n1` [Example 188, N-(6-(6-amino-5-chloropyridin-3-yl)imidazo[1,2-a]pyridin-2-yl)acetamide], on PI3 K Alpha (read-out: PI3K Alpha IC50), the pIC50 was over 6.00. The pEC50 in assay [1] (read-out: A2780 pAKT 473 EC50) is over 6.00; in the assay on A2780 cells it was over 5.00.
On to `COC(=O)Nc1nc2ccc(-c3ccc(N)nc3)cc2s1` [Example 2-3, [6-(6-Amino-pyridin-3-yl)-benzothiazol-2-yl]-carbamic acid methyl ester], for which, at PI3 K Alpha (setting [2]), the negative-log IC50 (pIC50) is over 6.00. Further, the values for the pEC50 (in assay [1] (setting [3]); with A2780 cells (72 hrs)) were over 6.00 and over 5.00, respectively.
With `Nc1ncc(-c2ccc3nc(NC(=O)CCCN4CCOCC4)sc3c2)cn1` [Example 2-11, N-[6-(2-Amino-pyrimidin-5-yl)-benzothiazol-2-yl]-4-morpholin-4-yl-butyramide], the pIC50 on PI3 K Alpha (setting [2]) was over 6.00. The pEC50 in assay [1] (setting [3]) was over 6.00; in the assay on A2780 cells (72 hrs), over 5.00.
Consider `CN(C)CCCC(=O)Nc1cn2nc(-c3cnc(N)c(C(F)(F)F)c3)ccc2n1` [Example 66, N-(6-(6-amino-5-(trifluoromethyl)pyridin-3-yl)imidazo[1,2-b]pyridazin-2-yl)-4-(dimethylamino) butanamide], for which the pIC50 on PI3 K Alpha (read-out: PI3K Alpha IC50) is over 6.00. Also, the pEC50 (in assay [1] (read-out: A2780 pAKT 473 EC50); with A2780 cells) was over 6.00 throughout.
As to `CC(=O)Nc1cn2nc(-c3cnc(N)c(C(=O)NCCNC(=O)OC(C)(C)C)c3)ccc2n1` [Example 103, tert-butyl 2-(5-(2-acetamido-imidazo[1,2-b]pyridazin-6-yl)-2-aminonicotin-amido)ethyl-carbamate], the negative logarithm of the IC50 (pIC50) at PI3 K Alpha (read-out: PI3K Alpha IC50) is over 6.00. Further, the negative logarithm of the EC50 (pEC50) (in assay [1] (read-out: A2780 pAKT 473 EC50); in the assay on A2780 cells) was over 6.00 throughout.
Take `CCN1CCN(CCCC(=O)Nc2cn3cc(-c4cnc(N)c(C(F)(F)F)c4)ccc3n2)CC1` [Example 206, N-(6-(6-amino-5-(trifluoromethyl)pyridin-3-yl)imidazo[1,2-a]pyridin-2-yl)-4-(4-ethylpiperazin-1-yl)butanamide]: the negative-log IC50 (pIC50) at PI3 K Alpha (read-out: PI3K Alpha IC50) is over 6.00. Besides, the negative logarithm of the EC50 (pEC50) in assay [1] (read-out: A2780 pAKT 473 EC50) was over 6.00; in the assay on A2780 cells, over 5.00.
Regarding `CC(C)(C)OC(=O)N1CC[C@@H](OCC(=O)Nc2cn3nc(-c4cnc(N)c(C(F)(F)F)c4)ccc3n2)C1` [Example 102, (R)-tert-butyl 3-(2-(6-(6-amino-5-(trifluoromethyl)pyridin-3-yl)imidazo[1,2-b]pyridazin-2-ylamino)-2-oxoethoxy) pyrrolidine-1-carboxylate], the pIC50 at PI3 K Alpha (read-out: PI3K Alpha IC50) is over 6.00. Also, the negative-log EC50 (pEC50) (in assay [1] (read-out: A2780 pAKT 473 EC50); in the assay on A2780 cells) was over 6.00 in each case.
In the case of `CC(=O)Nc1cn2cc(-c3cnc(N)c(-c4ccccc4OC(F)(F)F)c3)ccc2n1` [Example 121, N-(6-(6-amino-5-(2-(trifluoromethoxy)phenyl)pyridin-3-yl)imidazo[1,2-a]pyridin-2-yl)acetamide], the pIC50 on PI3 K Alpha (read-out: PI3K Alpha IC50) was over 6.00. In addition, the pEC50 in assay [1] (read-out: A2780 pAKT 473 EC50) is over 6.00; with A2780 cells, over 5.00.
As for `COc1ccc(CC(=O)Nc2cn3cc(-c4cnc(N)c(C(F)(F)F)c4)ccc3n2)cc1OC` [Example 51], the pIC50 on PI3 K Alpha (read-out: PI3K Alpha IC50) was over 6.00. Also, the figures for the pEC50 (in assay [1] (read-out: A2780 pAKT 473 EC50); in the assay with A2780 cells) were over 6.00 and over 5.00, respectively.
`Nc1ncc(-c2ccc3nc(NC(=O)Cc4cccc5ccccc45)cn3c2)cc1C(F)(F)F` [Example 110, N-(6-(6-amino-5-(trifluoromethyl)pyridin-3-yl)imidazo[1,2-a]pyridin-2-yl)-2-(naphthalen-1-yl)acetamide]: the pIC50 at PI3 K Alpha (read-out: PI3K Alpha IC50) was over 6.00. The pEC50 (in assay [1] (read-out: A2780 pAKT 473 EC50); in the assay on A2780 cells) was over 6.00 each time.
Consider `CC(=O)Nc1cn2cc(-c3cnc(N)c(Oc4ccc(F)cc4)n3)ccc2n1` [Example 63, N-(6-(5-amino-6-(4-fluorophenoxy)pyrazin-2-yl)imidazo[1,2-a]pyridin-2-yl)acetamide], for which the pIC50 at PI3 K Alpha (read-out: PI3K Alpha IC50) was over 6.00. The negative-log EC50 (pEC50) (in assay [1] (read-out: A2780 pAKT 473 EC50); in the assay on A2780 cells) was over 6.00 in each case.
`Nc1ccc(-c2ccc3nc(NC(=O)OCCN4CCOCC4)sc3c2)cn1` [Example 2-24, [6-(6-Amino-pyridin-3-yl)-benzothiazol-2-yl]-carbamic acid 2-morpholin-4-yl-ethyl ester]: on PI3 K Alpha (setting [2]), the pIC50 was over 6.00. For the same molecule, the pEC50 was over 5.00 in assay [1] (setting [3]) and over 4.60 in the assay on A2780 cells (72 hrs).
With `CC(=O)Nc1nc2ccc(-c3cnc(N)c(OCC(F)(F)F)n3)cc2s1` [Example 2-37, N-(6-(5-amino-6-(2,2,2-trifluoroethoxy)pyrazin-2-yl)benzo[d]thiazol-2-yl)acetamide], the pIC50 on PI3 K Alpha (setting [2]) is over 6.00. The pEC50 (in assay [1] (setting [3]); with A2780 cells (72 hrs)) was over 6.00 in each case.
`CC(=O)Nc1cn2nc(-c3cnc(N)c(-c4ccc(C(F)(F)F)cc4)c3)ccc2n1` [Example 107, N-(6-(6-amino-5-(4-(trifluoromethyl)phenyl)pyridin-3-yl)imidazo[1,2-b]pyridazin-2-yl)acetamide]: at PI3 K Alpha (read-out: PI3K Alpha IC50), the pIC50 was over 6.00. The pEC50 (in assay [1] (read-out: A2780 pAKT 473 EC50); with A2780 cells) was over 6.00 throughout.
For the molecule `NC(=O)[C@@H]1CCCN1C(=O)Nc1nc2ccc(-c3cnc(N)c(C(F)(F)F)c3)cc2s1` [Example 2-33, (S)-N1-(6-(6-amino-5-(trifluoromethyl)pyridin-3-yl)benzo[d]thiazol-2-yl)pyrrolidine-1,2-dicarboxamide], on PI3 K Alpha (setting [2]), the pIC50 was over 6.00. The pEC50 in assay [1] (setting [3]) is over 6.00; in the assay with A2780 cells (72 hrs), over 5.00.
As for `CC(=O)Nc1cn2cc(-c3cnc(N)c(-c4ccccc4)c3)ccc2n1` [Example 124, N-(6-(6-amino-5-phenylpyridin-3-yl)imidazo[1,2-a]pyridin-2-yl)acetamide], the pIC50 on PI3 K Alpha (read-out: PI3K Alpha IC50) was over 6.00. For the same molecule, the negative-log EC50 (pEC50) in assay [1] (read-out: A2780 pAKT 473 EC50) is over 6.00; in the assay with A2780 cells, over 5.00.
On to `Nc1ncc(-c2ccc3nc(NC(=O)C(F)(F)F)cn3c2)cn1` [Example 2, N-[6-(2-Amino-pyrimidin-5-yl)-imidazo[1,2-a]pyridin-2-yl]-2,2,2-trifluoro-acetamide], for which the pIC50 on PI3 K Alpha (read-out: PI3K Alpha IC50) was over 6.00. Also, the pEC50 (in assay [1] (read-out: A2780 pAKT 473 EC50); in the assay on A2780 cells) was over 4.60 throughout.
